The values that follow come from ChEMBL document CHEMBL1201862, “PubChem BioAssay data set” (2004).

Active and inactive are the calls of the source.

The target in one experiment is Estrogen receptor (Homo sapiens, UniProt P03372).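 Further: potency for inhibiting coactivator peptide recruitment to the receptor.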
Experiment [1] has as its target Tyrosine-protein phosphatase non-receptor type 7 (Homo sapiens, UniProt P35236). Type of experiment: functional.
Experiment [2] concerns the target Glyceraldehyde-3-phosphate dehydrogenase (Homo sapiens, UniProt P04406).
Experiment [3] addresses T1, Dual specificity protein phosphatase 6 (Rattus norvegicus, UniProt Q64346).
T1 sequence (Q64346 whole entry): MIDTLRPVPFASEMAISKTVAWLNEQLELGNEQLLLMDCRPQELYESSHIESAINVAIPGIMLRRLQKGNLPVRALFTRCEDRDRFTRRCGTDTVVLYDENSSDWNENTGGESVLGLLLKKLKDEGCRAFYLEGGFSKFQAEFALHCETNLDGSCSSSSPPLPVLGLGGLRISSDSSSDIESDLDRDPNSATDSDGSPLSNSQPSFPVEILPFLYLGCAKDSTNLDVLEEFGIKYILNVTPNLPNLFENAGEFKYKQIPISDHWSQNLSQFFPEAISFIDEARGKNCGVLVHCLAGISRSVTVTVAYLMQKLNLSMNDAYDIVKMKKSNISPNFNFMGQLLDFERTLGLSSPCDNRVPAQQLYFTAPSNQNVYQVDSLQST

In experiment [4] the target is T1, Dual specificity protein phosphatase 6. Type of experiment: functional.
Experiment [5] concerns the target Peroxisome proliferator-activated receptor gamma/Nuclear receptor coactivator 2 (Homo sapiens, UniProt P37231). Type of experiment: functional.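 Further: agonist potency for raising coactivator recruitment to the receptor.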
Experiment [6] deals with Peroxisome proliferator-activated receptor gamma/Nuclear receptor coactivator 1 (Homo sapiens, UniProt P37231). Type of experiment: functional.
Experiment [7] has as its target Peroxisome proliferator-activated receptor gamma/Nuclear receptor coactivator 3 (Homo sapiens, UniProt P37231). It counts as functional.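 Further: agonist potency for raising coactivator recruitment to the receptor.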
The target in experiment [8] is DNA dC->dU-editing enzyme APOBEC-3A (Homo sapiens, UniProt P31941). The experiment can be described thus: APOBEC3A DNA deaminase inhibitors, dose response, biochemical (AID 504722). Type of experiment: functional.
Experiment [9] has as its target DNA dC->dU-editing enzyme APOBEC-3G (Homo sapiens, UniProt Q9HC16). The experiment can be described thus: Dose Response confirmation of small molecule APOBEC3G DNA Deaminase Inhibitors via a fluorescence-based single-stranded DNA deaminase assay. [Related pubchem assays (depositor defined):AID493012, AID493028]. Type of experiment: functional.
The next experiment has as its target T2, Leucine aminopeptidase (Plasmodium falciparum 3D7, UniProt Q8IL11).
T2 sequence (Q8IL11 whole entry): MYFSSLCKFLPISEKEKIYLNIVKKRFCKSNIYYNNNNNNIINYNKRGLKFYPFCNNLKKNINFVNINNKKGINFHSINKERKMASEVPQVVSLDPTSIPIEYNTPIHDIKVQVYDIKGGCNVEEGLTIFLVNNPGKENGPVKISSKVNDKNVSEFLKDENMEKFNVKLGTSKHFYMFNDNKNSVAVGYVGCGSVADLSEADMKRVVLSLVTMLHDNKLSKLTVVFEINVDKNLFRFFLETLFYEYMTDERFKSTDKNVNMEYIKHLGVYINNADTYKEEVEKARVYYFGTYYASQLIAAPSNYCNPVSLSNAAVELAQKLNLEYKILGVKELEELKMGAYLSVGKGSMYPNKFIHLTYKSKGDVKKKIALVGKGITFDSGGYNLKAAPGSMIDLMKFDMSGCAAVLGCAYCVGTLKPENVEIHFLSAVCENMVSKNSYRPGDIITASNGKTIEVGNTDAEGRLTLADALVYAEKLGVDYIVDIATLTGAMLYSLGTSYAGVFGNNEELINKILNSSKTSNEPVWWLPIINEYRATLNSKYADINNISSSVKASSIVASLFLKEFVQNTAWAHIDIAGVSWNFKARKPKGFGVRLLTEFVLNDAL
Nature of the experiment: P. falciparum M17LAP inhibitors, primary screen, biochemical, fluorogenic H-Leu-NHMec substrate, 1536-well (AID 1619). Type of experiment: functional.

In the next experiment the target is T3, Aspartyl aminopeptidase (Plasmodium falciparum 3D7, UniProt Q8I2J3).
T3 sequence (Q8I2J3 whole entry): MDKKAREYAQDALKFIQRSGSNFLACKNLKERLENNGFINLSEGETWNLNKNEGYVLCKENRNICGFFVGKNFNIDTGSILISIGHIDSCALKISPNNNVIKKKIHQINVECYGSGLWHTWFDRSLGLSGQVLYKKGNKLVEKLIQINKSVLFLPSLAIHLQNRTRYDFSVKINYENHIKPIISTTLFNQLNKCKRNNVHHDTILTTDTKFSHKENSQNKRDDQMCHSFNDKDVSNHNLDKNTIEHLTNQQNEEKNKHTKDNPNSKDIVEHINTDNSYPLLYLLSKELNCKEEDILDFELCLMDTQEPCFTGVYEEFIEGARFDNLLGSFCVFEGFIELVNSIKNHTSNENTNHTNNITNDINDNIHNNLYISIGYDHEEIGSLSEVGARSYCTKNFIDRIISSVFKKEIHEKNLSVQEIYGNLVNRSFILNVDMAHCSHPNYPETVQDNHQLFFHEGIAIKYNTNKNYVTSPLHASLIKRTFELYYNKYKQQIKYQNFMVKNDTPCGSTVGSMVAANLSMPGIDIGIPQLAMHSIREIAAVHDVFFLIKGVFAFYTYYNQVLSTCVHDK
Nature of the experiment: Counterscreen for inhibitors of M1 and M17 aminopeptidases: QFRET-based biochemical high throughput dose response assay for inhibitors of the Plasmodium falciparum M18 Aspartyl Aminopeptidase (PFM18AAP). [Related PubChem assays: 1619 (Screening assay (M17LAP inhibitors).), 1445 (Screening assay (M1AAP inhibitors).)].

The next experiment has as its target Procathepsin L (Homo sapiens, UniProt P07711). Nature of the experiment: cathepsin L inhibitors, dose response, counter-screen for M1/M17 aminopeptidase inhibitor project, biochemical, QFRET, 1536-well (AID 2214).
Experiment [10] addresses T4, Replicative DNA helicase DnaB (Mycobacterium tuberculosis, UniProt P9WMR3).
T4 sequence (P9WMR3 whole entry): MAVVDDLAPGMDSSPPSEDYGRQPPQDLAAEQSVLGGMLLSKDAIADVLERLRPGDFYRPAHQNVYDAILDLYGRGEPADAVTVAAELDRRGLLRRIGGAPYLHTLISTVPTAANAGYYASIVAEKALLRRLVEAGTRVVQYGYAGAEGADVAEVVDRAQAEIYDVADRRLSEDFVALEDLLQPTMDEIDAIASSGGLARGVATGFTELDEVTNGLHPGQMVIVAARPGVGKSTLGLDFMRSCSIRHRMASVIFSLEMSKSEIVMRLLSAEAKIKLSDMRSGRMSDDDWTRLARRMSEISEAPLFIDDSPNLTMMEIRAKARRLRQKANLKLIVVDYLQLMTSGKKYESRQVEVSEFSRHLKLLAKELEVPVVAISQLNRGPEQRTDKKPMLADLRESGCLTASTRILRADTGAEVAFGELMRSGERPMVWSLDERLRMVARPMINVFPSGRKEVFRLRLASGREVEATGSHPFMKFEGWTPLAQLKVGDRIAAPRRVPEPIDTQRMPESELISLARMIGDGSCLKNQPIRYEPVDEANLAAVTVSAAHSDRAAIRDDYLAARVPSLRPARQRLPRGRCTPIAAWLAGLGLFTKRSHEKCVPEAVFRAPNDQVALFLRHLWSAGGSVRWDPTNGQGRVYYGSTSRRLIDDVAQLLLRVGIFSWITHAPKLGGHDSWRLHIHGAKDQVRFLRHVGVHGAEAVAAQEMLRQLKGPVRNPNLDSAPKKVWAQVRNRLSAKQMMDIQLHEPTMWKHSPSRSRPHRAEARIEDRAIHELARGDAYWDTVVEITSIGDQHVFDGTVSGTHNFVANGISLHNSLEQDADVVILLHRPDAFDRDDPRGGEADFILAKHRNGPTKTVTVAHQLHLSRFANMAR
Nature of the experiment: DnaB intein splicing inhibitors, dose response, biochemical, cell-free fluorescence (AID 449749). It counts as functional.

The next experiment addresses T5, Protein RecA (Mycobacterium tuberculosis, UniProt P9WHJ3).
T5 sequence (P9WHJ3 whole entry): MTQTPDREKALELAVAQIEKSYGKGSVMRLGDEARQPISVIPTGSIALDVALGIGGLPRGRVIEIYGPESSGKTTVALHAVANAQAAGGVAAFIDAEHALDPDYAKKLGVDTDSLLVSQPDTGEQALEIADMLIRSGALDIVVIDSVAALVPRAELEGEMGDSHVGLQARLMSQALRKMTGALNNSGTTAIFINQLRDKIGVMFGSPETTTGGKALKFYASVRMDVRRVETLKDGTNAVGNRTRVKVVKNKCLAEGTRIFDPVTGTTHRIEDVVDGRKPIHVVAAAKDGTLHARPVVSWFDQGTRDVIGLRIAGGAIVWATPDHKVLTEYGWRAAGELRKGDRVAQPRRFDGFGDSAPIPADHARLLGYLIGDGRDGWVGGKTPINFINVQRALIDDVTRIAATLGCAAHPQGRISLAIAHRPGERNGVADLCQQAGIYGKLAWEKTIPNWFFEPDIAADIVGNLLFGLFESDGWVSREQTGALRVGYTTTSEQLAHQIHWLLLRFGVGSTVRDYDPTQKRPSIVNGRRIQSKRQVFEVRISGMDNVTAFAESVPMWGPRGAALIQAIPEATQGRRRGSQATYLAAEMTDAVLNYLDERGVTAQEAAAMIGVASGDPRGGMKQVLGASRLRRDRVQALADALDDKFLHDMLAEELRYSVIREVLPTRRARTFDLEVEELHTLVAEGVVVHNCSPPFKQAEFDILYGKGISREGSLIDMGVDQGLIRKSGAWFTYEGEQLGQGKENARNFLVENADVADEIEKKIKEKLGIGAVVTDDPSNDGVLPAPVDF
The experiment can be described thus: Fluorescence Cell-Free Homogeneous Dose Retest to Identify Inhibitors of RecA-Intein Splicing Activity. [Related pubchem assays (depositor defined):AID2097, AID2223, AID489010, AID492950]. It counts as functional.

For experiment [11], the target named is T6, Sentrin-specific protease 8 (Homo sapiens, UniProt Q96LD8).
T6 sequence (Q96LD8 whole entry): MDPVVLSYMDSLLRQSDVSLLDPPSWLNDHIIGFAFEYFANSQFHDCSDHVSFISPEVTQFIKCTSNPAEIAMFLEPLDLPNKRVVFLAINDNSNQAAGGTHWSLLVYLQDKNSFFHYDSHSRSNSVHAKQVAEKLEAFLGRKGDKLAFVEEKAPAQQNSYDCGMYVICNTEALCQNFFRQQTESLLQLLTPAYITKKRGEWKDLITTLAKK
Type of experiment: functional.

In experiment [12] the target is T6, Sentrin-specific protease 8. Type of experiment: functional. The source holds these as a separate data set.
For another experiment, the target named is T7, Protein skinhead-1 (Caenorhabditis elegans, UniProt P34707).
T7 sequence (P34707 whole entry): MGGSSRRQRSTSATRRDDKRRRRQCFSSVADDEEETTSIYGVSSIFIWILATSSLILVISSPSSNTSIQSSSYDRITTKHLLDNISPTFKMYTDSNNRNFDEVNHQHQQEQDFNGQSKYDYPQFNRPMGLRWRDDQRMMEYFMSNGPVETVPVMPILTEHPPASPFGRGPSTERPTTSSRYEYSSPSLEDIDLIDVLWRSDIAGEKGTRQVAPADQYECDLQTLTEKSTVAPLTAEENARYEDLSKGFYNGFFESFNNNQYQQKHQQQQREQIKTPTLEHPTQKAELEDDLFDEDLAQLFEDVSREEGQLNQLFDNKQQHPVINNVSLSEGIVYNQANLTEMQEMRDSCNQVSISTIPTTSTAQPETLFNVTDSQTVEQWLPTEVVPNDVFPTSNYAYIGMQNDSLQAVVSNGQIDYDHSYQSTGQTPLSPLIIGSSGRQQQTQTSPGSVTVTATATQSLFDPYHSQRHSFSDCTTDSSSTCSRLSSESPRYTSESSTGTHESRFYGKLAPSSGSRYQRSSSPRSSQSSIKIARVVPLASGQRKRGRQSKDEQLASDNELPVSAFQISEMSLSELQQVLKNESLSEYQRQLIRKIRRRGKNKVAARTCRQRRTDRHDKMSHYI
It counts as functional.

Sequence of Glyceraldehyde-3-phosphate dehydrogenase (P04406 whole entry): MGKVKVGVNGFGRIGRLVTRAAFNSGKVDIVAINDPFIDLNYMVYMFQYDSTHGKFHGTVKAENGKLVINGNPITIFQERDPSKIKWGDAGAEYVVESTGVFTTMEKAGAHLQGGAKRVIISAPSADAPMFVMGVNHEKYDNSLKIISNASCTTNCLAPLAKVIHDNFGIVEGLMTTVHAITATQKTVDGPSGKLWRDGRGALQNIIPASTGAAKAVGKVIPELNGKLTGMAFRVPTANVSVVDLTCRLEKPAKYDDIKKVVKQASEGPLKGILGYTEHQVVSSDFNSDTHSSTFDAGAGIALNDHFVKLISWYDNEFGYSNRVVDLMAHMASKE
Sequence of Tyrosine-protein phosphatase non-receptor type 7 (P35236 whole entry): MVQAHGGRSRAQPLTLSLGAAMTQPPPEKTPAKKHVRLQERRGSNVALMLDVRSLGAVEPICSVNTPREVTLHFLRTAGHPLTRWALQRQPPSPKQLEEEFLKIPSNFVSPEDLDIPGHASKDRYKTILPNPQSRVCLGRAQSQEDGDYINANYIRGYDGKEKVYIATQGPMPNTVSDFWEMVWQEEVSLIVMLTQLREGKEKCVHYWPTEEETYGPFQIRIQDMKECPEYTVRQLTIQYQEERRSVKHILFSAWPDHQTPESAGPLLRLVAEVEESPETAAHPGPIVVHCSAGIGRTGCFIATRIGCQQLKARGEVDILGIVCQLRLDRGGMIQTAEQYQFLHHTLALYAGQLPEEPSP
Sequence of Peroxisome proliferator-activated receptor gamma/Nuclear receptor coactivator 2 (P37231 whole entry): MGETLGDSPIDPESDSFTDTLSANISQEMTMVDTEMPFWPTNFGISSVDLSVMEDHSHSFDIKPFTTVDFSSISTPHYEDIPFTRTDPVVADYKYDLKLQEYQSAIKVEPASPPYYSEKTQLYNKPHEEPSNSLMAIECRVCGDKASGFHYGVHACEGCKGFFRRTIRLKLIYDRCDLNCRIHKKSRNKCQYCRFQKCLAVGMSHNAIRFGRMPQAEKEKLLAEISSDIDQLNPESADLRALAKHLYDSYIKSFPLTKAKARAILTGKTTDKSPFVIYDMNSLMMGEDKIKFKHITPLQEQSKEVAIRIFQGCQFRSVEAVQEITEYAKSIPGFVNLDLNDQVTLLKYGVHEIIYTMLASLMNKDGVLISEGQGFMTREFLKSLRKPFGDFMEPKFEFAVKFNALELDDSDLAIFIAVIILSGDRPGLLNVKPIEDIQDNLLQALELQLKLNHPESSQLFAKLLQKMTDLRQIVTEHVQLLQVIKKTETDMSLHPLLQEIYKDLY
Sequence of Peroxisome proliferator-activated receptor gamma/Nuclear receptor coactivator 2 (Q15596 whole entry, further chain): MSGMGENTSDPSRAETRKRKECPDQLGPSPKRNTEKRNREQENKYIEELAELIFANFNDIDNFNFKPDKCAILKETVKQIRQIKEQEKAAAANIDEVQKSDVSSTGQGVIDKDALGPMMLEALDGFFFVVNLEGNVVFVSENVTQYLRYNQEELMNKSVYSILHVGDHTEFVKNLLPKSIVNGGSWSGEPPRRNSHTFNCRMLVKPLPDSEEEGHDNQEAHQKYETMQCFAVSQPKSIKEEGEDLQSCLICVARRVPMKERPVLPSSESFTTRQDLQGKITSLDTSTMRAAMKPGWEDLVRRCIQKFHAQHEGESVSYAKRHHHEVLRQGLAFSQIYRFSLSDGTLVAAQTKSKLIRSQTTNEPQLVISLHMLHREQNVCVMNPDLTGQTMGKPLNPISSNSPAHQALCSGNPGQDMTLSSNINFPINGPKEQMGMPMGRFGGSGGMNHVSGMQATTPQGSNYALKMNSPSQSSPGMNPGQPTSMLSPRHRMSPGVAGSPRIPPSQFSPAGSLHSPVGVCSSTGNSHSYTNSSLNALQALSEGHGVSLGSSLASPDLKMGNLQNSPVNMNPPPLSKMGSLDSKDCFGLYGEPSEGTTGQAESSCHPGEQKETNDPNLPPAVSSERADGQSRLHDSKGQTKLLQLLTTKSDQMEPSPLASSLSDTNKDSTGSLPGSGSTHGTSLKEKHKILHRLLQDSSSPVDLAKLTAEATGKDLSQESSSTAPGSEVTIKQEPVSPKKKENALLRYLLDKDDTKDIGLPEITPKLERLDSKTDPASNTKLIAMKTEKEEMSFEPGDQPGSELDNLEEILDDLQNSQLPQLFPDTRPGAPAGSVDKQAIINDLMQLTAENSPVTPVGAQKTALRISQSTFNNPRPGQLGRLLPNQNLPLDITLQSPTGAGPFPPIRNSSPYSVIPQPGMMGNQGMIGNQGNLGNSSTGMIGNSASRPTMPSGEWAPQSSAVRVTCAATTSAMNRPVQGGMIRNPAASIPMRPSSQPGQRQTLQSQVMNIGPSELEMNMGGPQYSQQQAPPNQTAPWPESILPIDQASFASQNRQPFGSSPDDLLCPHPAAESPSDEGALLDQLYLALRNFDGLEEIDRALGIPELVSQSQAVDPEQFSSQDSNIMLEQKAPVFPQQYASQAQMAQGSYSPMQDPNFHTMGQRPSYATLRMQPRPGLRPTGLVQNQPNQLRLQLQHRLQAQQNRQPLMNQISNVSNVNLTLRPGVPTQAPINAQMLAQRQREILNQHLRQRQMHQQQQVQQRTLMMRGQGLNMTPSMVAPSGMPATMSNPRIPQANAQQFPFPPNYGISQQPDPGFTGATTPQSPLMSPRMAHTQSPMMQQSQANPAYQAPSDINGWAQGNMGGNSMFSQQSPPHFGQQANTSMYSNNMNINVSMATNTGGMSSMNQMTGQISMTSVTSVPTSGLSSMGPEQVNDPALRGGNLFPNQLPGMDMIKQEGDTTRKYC
Sequence of Peroxisome proliferator-activated receptor gamma/Nuclear receptor coactivator 1 (P37231 whole entry): as the sequence (P37231 whole entry) above
Sequence of Peroxisome proliferator-activated receptor gamma/Nuclear receptor coactivator 1 (Q15788 whole entry, further chain): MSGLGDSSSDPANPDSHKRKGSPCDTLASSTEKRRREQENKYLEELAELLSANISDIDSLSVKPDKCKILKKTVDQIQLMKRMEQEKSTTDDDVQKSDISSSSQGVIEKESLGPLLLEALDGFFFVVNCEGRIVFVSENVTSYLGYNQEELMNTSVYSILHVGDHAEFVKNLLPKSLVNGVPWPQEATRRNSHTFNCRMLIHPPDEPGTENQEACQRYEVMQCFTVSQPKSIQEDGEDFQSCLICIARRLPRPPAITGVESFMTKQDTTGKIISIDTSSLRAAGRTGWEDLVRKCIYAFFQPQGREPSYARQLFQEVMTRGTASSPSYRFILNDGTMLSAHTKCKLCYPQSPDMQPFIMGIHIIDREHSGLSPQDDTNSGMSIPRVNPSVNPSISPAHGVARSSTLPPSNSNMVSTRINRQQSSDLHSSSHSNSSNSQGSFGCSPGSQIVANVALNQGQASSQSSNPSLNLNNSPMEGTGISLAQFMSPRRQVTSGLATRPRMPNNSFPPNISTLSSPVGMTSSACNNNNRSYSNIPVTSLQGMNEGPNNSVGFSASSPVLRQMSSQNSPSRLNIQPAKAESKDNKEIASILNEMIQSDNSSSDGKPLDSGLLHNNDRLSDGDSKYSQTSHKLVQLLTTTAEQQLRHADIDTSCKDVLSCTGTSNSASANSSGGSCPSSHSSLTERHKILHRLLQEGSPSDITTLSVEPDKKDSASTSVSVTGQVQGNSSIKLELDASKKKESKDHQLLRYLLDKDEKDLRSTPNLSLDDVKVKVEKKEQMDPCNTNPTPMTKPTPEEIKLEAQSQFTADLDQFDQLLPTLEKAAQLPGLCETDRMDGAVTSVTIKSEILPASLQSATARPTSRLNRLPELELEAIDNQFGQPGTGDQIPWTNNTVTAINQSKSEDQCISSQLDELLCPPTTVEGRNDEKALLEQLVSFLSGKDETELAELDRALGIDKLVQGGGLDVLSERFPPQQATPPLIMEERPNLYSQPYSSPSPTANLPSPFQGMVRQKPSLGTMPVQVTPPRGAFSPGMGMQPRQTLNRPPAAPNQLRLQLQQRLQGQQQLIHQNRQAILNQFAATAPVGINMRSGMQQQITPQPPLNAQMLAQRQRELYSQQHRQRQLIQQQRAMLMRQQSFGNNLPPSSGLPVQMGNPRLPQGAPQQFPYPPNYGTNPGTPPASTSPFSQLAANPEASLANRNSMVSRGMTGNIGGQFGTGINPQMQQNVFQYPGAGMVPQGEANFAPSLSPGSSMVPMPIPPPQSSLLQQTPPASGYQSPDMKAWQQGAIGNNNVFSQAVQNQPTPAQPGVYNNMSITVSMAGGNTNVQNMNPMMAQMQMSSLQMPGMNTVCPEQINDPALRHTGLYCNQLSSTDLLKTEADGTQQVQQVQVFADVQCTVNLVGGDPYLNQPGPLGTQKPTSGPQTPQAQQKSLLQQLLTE
Sequence of DNA dC->dU-editing enzyme APOBEC-3A (P31941 whole entry): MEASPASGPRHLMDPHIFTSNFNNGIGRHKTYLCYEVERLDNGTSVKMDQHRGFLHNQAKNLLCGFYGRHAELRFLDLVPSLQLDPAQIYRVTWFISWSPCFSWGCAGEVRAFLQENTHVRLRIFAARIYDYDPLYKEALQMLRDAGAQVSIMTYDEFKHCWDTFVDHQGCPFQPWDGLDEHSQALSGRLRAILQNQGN

In the case of `O=C(Nc1cnc2ccccc2c1)c1ccco1`, at Estrogen receptor, the concentration for half-maximal inhibition (IC50) is reported as > 50 µM (not active).

Take `COc1ccc(-c2cc(C(F)(F)F)n3ncc(C(=O)NCc4ccco4)c3n2)cc1`: the concentration for half-maximal inhibition (IC50) against Estrogen receptor was > 50 µM (not active).

Consider `O=C(O)[C@H](O)c1ccccc1`, for which the IC50 in [1] was > 100 µM (not active); in experiment [2], > 100 µM (not active); in experiment [3], > 100 µM (inactive); in [4] it was > 100 µM (inactive).

`Sc1nc2cc(Cl)ccc2[nH]1`: the half-maximal effective concentration (EC50) in experiment [5], in [6] and in experiment [7] was > 79.4 µM (not active) throughout. Further, the values for the IC50 in [8] and in experiment [9] were > 100 µM (inactive) and 5.27 µM (active), respectively.

In the case of `O=c1cc(-c2ccc(Cl)cc2)[nH][nH]1`, the IC50 on Leucine aminopeptidase was < 1 µM (active); against Aspartyl aminopeptidase, > 73.5 µM (not active); against Procathepsin L, > 59.6 µM (not active); in experiment [11], 57 µM (active); in experiment [12], 67.7 µM (inactive). For the same compound, in [10], the concentration at half-maximal activity (AC50) is 2.33 µM (active). For the same compound, the concentration for a half-maximal effect (EC50) at Protein RecA is 0.527 µM (active).

Turning to `Cc1cc(NC(=O)CCc2ccc(C)o2)no1`, the IC50 is > 100 µM (not active) in experiment [1]; > 100 µM (not active) in experiment [2]; > 100 µM (inactive) in experiment [3]; > 100 µM (inactive) in experiment [4]; > 100 µM (inactive) at Protein skinhead-1.

On to `CCOC(=O)C1=C(C)N=C(SCC(=O)O)NC1c1ccccc1` (stereo unspecified), for which the half-maximal effective concentration (EC50) in experiment [5], in experiment [6] and in experiment [7] was > 79.4 µM (not active) in each case.
